Laboratory results as given in ChEMBL document CHEMBL1671859, “bla(IMP-4) in different genetic contexts in Enterobacteriaceae isolates from Australia” (2008).
Values after ≈ are worked out from the molar mass of the structure shown.

Key:
Type in all cases: functional
Citrobacter koseri = assay: Antibacterial activity against Citrobacter koseri Ck211 transconjugant harboring IncA/C plasmid and blaIMP-4-qacG2-aacA4-catB3 array by Etest method
Serratia marcescens [1] = assay: Antibacterial activity against Serratia marcescens isolate Sm211 harboring IncA/C plasmid and blaIMP-4-qacG2-aacA4-catB3 array by Etest method
Escherichia coli [2] = assay: Antibacterial activity against Escherichia coli isolate Ec221 harboring IncA/C plasmid and blaIMP-4-qacG2-aacA4-catB3 array by Etest method
Klebsiella pneumoniae [3] = assay: Antibacterial activity against Klebsiella pneumoniae Kp3799 transconjugant harboring IncL/M plasmid and blaIMP-4-qacG2-aacA4-catB3 array by Etest method
Escherichia coli [4] = assay: Antibacterial activity against Escherichia coli isolate Ec158 harboring IncA/C plasmid and blaIMP-4-qacG2-aacA4-catB3 array by Etest method
Enterobacter cloacae [5] = assay: Antibacterial activity against Enterobacter cloacae isolate El216 harboring IncA/C plasmid and blaIMP-4-qacG2-aacA4-catB3 array by Etest method
Klebsiella pneumoniae [6] = assay: Antibacterial activity against Klebsiella pneumoniae isolate Kp204 harboring IncA/C plasmid and blaIMP-4-qacG2-aacA4-catB3 array by Etest method
Klebsiella pneumoniae [7] = assay: Antibacterial activity against Klebsiella pneumoniae isolate Kp4614
Enterobacter cloacae [8] = assay: Antibacterial activity against Enterobacter cloacae El3518 transconjugant harboring IncL/M plasmid and blaIMP-4-qacG2-aacA4-catB3 array by Etest method
Enterobacter cloacae [9] = assay: Antibacterial activity against Enterobacter cloacae isolate El3518 harboring IncL/M plasmid and blaIMP-4-qacG2-aacA4-catB3 array by Etest method
Klebsiella pneumoniae [10] = assay: Antibacterial activity against Klebsiella pneumoniae isolate Kp38009 harboring IncL/M plasmid and blaIMP-4-qacG2-aacA4-catB3 array by Etest method
Klebsiella pneumoniae [11] = assay: Antibacterial activity against Klebsiella pneumoniae isolate Kp3799 harboring IncL/M plasmid and blaIMP-4-qacG2-aacA4-catB3 array by Etest method
Serratia marcescens [12] = assay: Antibacterial activity against Serratia marcescens isolate Sm201 harboring IncA/C plasmid and blaIMP-4-qacG2-aacA4-catB3 array by Etest method
Serratia marcescens [13] = assay: Antibacterial activity against Serratia marcescens Sm2723 transconjugant harboring IncL/M plasmid and blaIMP-4-qacG2-aacA4-catB3 array by Etest method
Morganella morganii [14] = assay: Antibacterial activity against Morganella morganii isolate Mm1614 harboring IncL/M plasmid and blaIMP-4-qacG2-aacA4-catB3 array by Etest method
Morganella morganii [15] = assay: Antibacterial activity against Morganella morganii Mm38009 transconjugant harboring IncL/M plasmid and blaIMP-4-qacG2-aacA4-catB3 array by Etest method
Klebsiella oxytoca [16] = assay: Antibacterial activity against Klebsiella oxytoca Ko0426 transconjugant harboring IncL/M plasmid and blaIMP-4-qacG2-aacA4-catB3 array by Etest method
Citrobacter amalonaticus [17] = assay: Antibacterial activity against Citrobacter amalonaticus isolate Ca1614 harboring IncL/M plasmid and blaIMP-4-qacG2-aacA4-catB3 array by Etest method
Klebsiella pneumoniae [18] = assay: Antibacterial activity against Klebsiella pneumoniae Kp7564 transconjugant harboring IncL/M plasmid and blaIMP-4-qacG2-aacA4-catB3 array by Etest method
Klebsiella pneumoniae [19] = assay: Antibacterial activity against Klebsiella pneumoniae Kp149 transconjugant harboring IncA/C plasmid and blaIMP-4-qacG2-aacA4-catB3 array by Etest method
Citrobacter amalonaticus [20] = assay: Antibacterial activity against Citrobacter amalonaticus Ca3927 transconjugant harboring IncL/M plasmid and blaIMP-4-qacG2-aacA4-catB3 array by Etest method
Enterobacter cloacae [21] = assay: Antibacterial activity against Enterobacter cloacae El1573 transconjugant harboring IncL/M plasmid and blaIMP-4-qacG2-aacA4-catB3 array by Etest method
Citrobacter amalonaticus [22] = assay: Antibacterial activity against Citrobacter amalonaticus Ca38009 transconjugant harboring IncL/M plasmid and blaIMP-4-qacG2-aacA4-catB3 array by Etest method
Klebsiella pneumoniae [23] = assay: Antibacterial activity against Klebsiella pneumoniae isolate Kp149 harboring IncA/C plasmid and blaIMP-4-qacG2-aacA4-catB3 array by Etest method
Enterobacter cloacae [24] = assay: Antibacterial activity against Enterobacter cloacae isolate El3799 harboring IncL/M plasmid and blaIMP-4-qacG2-aacA4-catB3 array by Etest method
Klebsiella pneumoniae [25] = assay: Antibacterial activity against Klebsiella pneumoniae isolate Kp211 harboring IncA/C plasmid and blaIMP-4-qacG2-aacA4-catB3 array by Etest method
Serratia marcescens [26] = assay: Antibacterial activity against Serratia marcescens isolate Sm203 harboring IncA/C plasmid and blaIMP-4-qacG2-aacA4-catB3 array by Etest method
Enterobacter cloacae [27] = assay: Antibacterial activity against Enterobacter cloacae isolate El3280 harboring IncL/M plasmid and blaIMP-4-qacG2-aacA4-catB3 array by Etest method
Morganella morganii [28] = assay: Antibacterial activity against Morganella morganii Mm1229 transconjugant harboring IncL/M plasmid and blaIMP-4-qacG2-aacA4-catB3 array by Etest method
Klebsiella pneumoniae [29] = assay: Antibacterial activity against Klebsiella pneumoniae isolate Kp7564 harboring IncL/M plasmid and blaIMP-4-qacG2-aacA4-catB3 array by Etest method
Citrobacter amalonaticus [30] = assay: Antibacterial activity against Citrobacter amalonaticus isolate Ca38009 harboring IncL/M plasmid and blaIMP-4-qacG2-aacA4-catB3 array by Etest method
Escherichia coli [31] = assay: Antibacterial activity against Escherichia coli Ec9381 transconjugant harboring IncL/M plasmid and blaIMP-4-qacG2-aacA4-catB3 array by Etest method
Enterobacter cloacae [32] = assay: Antibacterial activity against Enterobacter cloacae El3799 transconjugant harboring IncL/M plasmid and blaIMP-4-qacG2-aacA4-catB3 array by Etest method
Escherichia coli [33] = assay: Antibacterial activity against Escherichia coli isolate Ec9381 harboring IncL/M plasmid and blaIMP-4-qacG2-aacA4-catB3 array by Etest method
Klebsiella oxytoca [34] = assay: Antibacterial activity against Klebsiella oxytoca isolate Ko1156 harboring IncL/M plasmid and blaIMP-4-qacG2-aacA4-catB3 array by Etest method
Klebsiella oxytoca [35] = assay: Antibacterial activity against Klebsiella oxytoca isolate Ko0426 harboring IncL/M plasmid and blaIMP-4-qacG2-aacA4-catB3 array by Etest method
Citrobacter youngae = assay: Antibacterial activity against Citrobacter youngae isolate CyB38 harboring blaIMP-4-qacG2-aacA4-catB3 array by Etest method
Serratia marcescens [36] = assay: Antibacterial activity against Serratia marcescens isolate Sm265 harboring IncA/C plasmid and blaIMP-4-qacG2-aacA4-catB3 array by Etest method
Klebsiella oxytoca [37] = assay: Antibacterial activity against Klebsiella oxytoca Ko238 transconjugant harboring IncA/C plasmid and blaIMP-4-qacG2-aacA4-catB3 array by Etest method
Citrobacter amalonaticus [38] = assay: Antibacterial activity against Citrobacter amalonaticus isolate Ca3927 harboring IncL/M plasmid and blaIMP-4-qacG2-aacA4-catB3 array by Etest method
Klebsiella pneumoniae [39] = assay: Antibacterial activity against Klebsiella pneumoniae isolate Kp266 harboring IncA/C plasmid and blaIMP-4-qacG2-aacA4-catB3 array by Etest method
Escherichia coli [40] = assay: Antibacterial activity against Escherichia coli Ec158 transconjugant harboring IncA/C plasmid and blaIMP-4-qacG2-aacA4-catB3 array by Etest method

## CO/N=C(\C(=O)N[C@@H]1C(=O)N2C(C(=O)O)=C(COC(C)=O)CS[C@H]12)c1csc(N)n1 [CEFOTAXIME]
Citrobacter koseri
  MIC: > 2 µg/mL
Serratia marcescens [1]
  MIC: > 32 µg/mL
Escherichia coli [2]
  MIC: > 32 µg/mL
Klebsiella pneumoniae [3]
  MIC: 32 µg/mL (≈ 70.3 µM)
Escherichia coli [4]
  MIC: > 32 µg/mL
Enterobacter cloacae [5]
  MIC: > 32 µg/mL
Klebsiella pneumoniae [6]
  MIC: > 32 µg/mL
Klebsiella pneumoniae [7]
  MIC: > 32 µg/mL
Enterobacter cloacae [8]
  MIC: 32 µg/mL (≈ 70.3 µM)
Enterobacter cloacae [9]
  MIC: > 32 µg/mL
Klebsiella pneumoniae [10]
  MIC: > 32 µg/mL
Klebsiella pneumoniae [11]
  MIC: > 32 µg/mL
Serratia marcescens [12]
  MIC: > 32 µg/mL
Serratia marcescens [13]
  MIC: 16 µg/mL (≈ 35.1 µM)
Morganella morganii [14]
  MIC: 32 µg/mL (≈ 70.3 µM)
Morganella morganii [15]
  MIC: 32 µg/mL (≈ 70.3 µM)
Klebsiella oxytoca [16]
  MIC: 32 µg/mL (≈ 70.3 µM)
Citrobacter amalonaticus [17]
  MIC: > 32 µg/mL
Klebsiella pneumoniae [18]
  MIC: 32 µg/mL (≈ 70.3 µM)
Klebsiella pneumoniae [19]
  MIC: > 32 µg/mL
Citrobacter amalonaticus [20]
  MIC: 32 µg/mL (≈ 70.3 µM)
Enterobacter cloacae [21]
  MIC: 16 µg/mL (≈ 35.1 µM)
Citrobacter amalonaticus [22]
  MIC: 16 µg/mL (≈ 35.1 µM)
Klebsiella pneumoniae [23]
  MIC: > 32 µg/mL
Enterobacter cloacae [24]
  MIC: > 32 µg/mL
Klebsiella pneumoniae [25]
  MIC: > 32 µg/mL
Serratia marcescens [26]
  MIC: > 32 µg/mL
Enterobacter cloacae [27]
  MIC: > 32 µg/mL
Morganella morganii [28]
  MIC: 32 µg/mL (≈ 70.3 µM)
Klebsiella pneumoniae [29]
  MIC: 32 µg/mL (≈ 70.3 µM)
Citrobacter amalonaticus [30]
  MIC: > 32 µg/mL
Escherichia coli [31]
  MIC: 32 µg/mL (≈ 70.3 µM)
Enterobacter cloacae [32]
  MIC: 32 µg/mL (≈ 70.3 µM)
Escherichia coli [33]
  MIC: > 32 µg/mL
Klebsiella oxytoca [34]
  MIC: 32 µg/mL (≈ 70.3 µM)
Klebsiella oxytoca [35]
  MIC: 32 µg/mL (≈ 70.3 µM)
Citrobacter youngae
  MIC: > 32 µg/mL
Serratia marcescens [36]
  MIC: > 32 µg/mL
Klebsiella oxytoca [37]
  MIC: 32 µg/mL (≈ 70.3 µM)
Citrobacter amalonaticus [38]
  MIC: > 32 µg/mL
Klebsiella pneumoniae [39]
  MIC: > 32 µg/mL
Escherichia coli [40]
  MIC: > 32 µg/mL

## C[C@@H](O)[C@H]1C(=O)N2C(C(=O)O)=C(SCCNC=N)C[C@H]12 [IMIPENEM ANHYDROUS]
Citrobacter koseri
  MIC: ≤ 1 µg/mL
Serratia marcescens [1]
  MIC: 4 µg/mL (≈ 13.4 µM)
Escherichia coli [2]
  MIC: 8 µg/mL (≈ 26.7 µM)
Klebsiella pneumoniae [3]
  MIC: 2 µg/mL (≈ 6.68 µM)
Escherichia coli [4]
  MIC: ≤ 1 µg/mL
Enterobacter cloacae [5]
  MIC: > 8 µg/mL
Klebsiella pneumoniae [6]
  MIC: 8 µg/mL (≈ 26.7 µM)
Klebsiella pneumoniae [7]
  MIC: ≤ 1 µg/mL
Enterobacter cloacae [8]
  MIC: 2 µg/mL (≈ 6.68 µM)
Enterobacter cloacae [9]
  MIC: 3 µg/mL (≈ 10 µM)
Klebsiella pneumoniae [10]
  MIC: 0.5 µg/mL (≈ 1.67 µM)
Klebsiella pneumoniae [11]
  MIC: 4 µg/mL (≈ 13.4 µM)
Serratia marcescens [12]
  MIC: 8 µg/mL (≈ 26.7 µM)
Serratia marcescens [13]
  MIC: 2 µg/mL (≈ 6.68 µM)
Morganella morganii [14]
  MIC: 8 µg/mL (≈ 26.7 µM)
Morganella morganii [15]
  MIC: 2 µg/mL (≈ 6.68 µM)
Klebsiella oxytoca [16]
  MIC: 4 µg/mL (≈ 13.4 µM)
Citrobacter amalonaticus [17]
  MIC: 4 µg/mL (≈ 13.4 µM)
Klebsiella pneumoniae [18]
  MIC: 2 µg/mL (≈ 6.68 µM)
Klebsiella pneumoniae [19]
  MIC: 4 µg/mL (≈ 13.4 µM)
Citrobacter amalonaticus [20]
  MIC: ≤ 1 µg/mL
Enterobacter cloacae [21]
  MIC: 2 µg/mL (≈ 6.68 µM)
Citrobacter amalonaticus [22]
  MIC: 2 µg/mL (≈ 6.68 µM)
Klebsiella pneumoniae [23]
  MIC: 8 µg/mL (≈ 26.7 µM)
Enterobacter cloacae [24]
  MIC: 1 µg/mL (≈ 3.34 µM)
Klebsiella pneumoniae [25]
  MIC: 2 µg/mL (≈ 6.68 µM)
Serratia marcescens [26]
  MIC: 4 µg/mL (≈ 13.4 µM)
Enterobacter cloacae [27]
  MIC: 3 µg/mL (≈ 10 µM)
Morganella morganii [28]
  MIC: 2 µg/mL (≈ 6.68 µM)
Klebsiella pneumoniae [29]
  MIC: 7 µg/mL (≈ 23.4 µM)
Citrobacter amalonaticus [30]
  MIC: 1.5 µg/mL (≈ 5.01 µM)
Escherichia coli [31]
  MIC: ≤ 1 µg/mL
Enterobacter cloacae [32]
  MIC: ≤ 1 µg/mL
Escherichia coli [33]
  MIC: 1.5 µg/mL (≈ 5.01 µM)
Klebsiella oxytoca [34]
  MIC: 0.75 µg/mL (≈ 2.51 µM)
Klebsiella oxytoca [35]
  MIC: 4 µg/mL (≈ 13.4 µM)
Citrobacter youngae
  MIC: 8 µg/mL (≈ 26.7 µM)
Serratia marcescens [36]
  MIC: > 8 µg/mL
Klebsiella oxytoca [37]
  MIC: 2 µg/mL (≈ 6.68 µM)
Citrobacter amalonaticus [38]
  MIC: 2 µg/mL (≈ 6.68 µM)
Klebsiella pneumoniae [39]
  MIC: 8 µg/mL (≈ 26.7 µM)
Escherichia coli [40]
  MIC: 2 µg/mL (≈ 6.68 µM)
